Like-named read-outs stand apart in the source and are kept apart here.
What was measured:
yeast-like fungi = assay: MIC / MFC for yeast-like fungi, all strains; type: cell-based, Candida, Cryptococcus, Saccharomyces, Torulopsis; settings: read-out: Mean MIC values
Procedure: (§1) The following strains were used (the number of strains is in brackets): Candida (13); Criptococcus (2); Saccharormyces (1); Torulopsis (1).
(§2) Yeast Nitrogen Base supplemented with 0.15% asparagine and 1.0% glucose (as carbon source) was the medium utilized in the assays.
(§3) This medium was buffered with 0.165 M 2-(N-morpholino) propane sulfonic acid (MOPS), a non-chelating buffer. […]
(§4) The inoculum was prepared from an overnight broth culture (a 48-hour culture only for Cryptococcus) in Sabouraud broth and appropriately diluted to yield a final suspension containing approximately 5.0×10^6 Colony Forming Units per ml (CFU/ml), when compared to the Mc Farland's standard control (BRAY W. E., Clinical Laboratory Methods, 5th Ed. C. V. MOSBY, St. Louis, Mo, 1957).
(§5) After further diluting (1:50), a […] volume of such fungal suspensions and an equal volume of the substance solutions were distributed into each well of a microtiter plate (96 wells, round bottom). Such a procedure eventually allowed for an "in vitro" antimycotic activity assay utilizing final fungal inocula of approximately 5.0×10^4 CFU/ml.
The minimal fungicidal concentration was evaluated by spot-transferring onto Petri dishes, containing Sabouraud agar, 0.01-ml volumes of all the samples showing no visible fungal growth.

Mucor mucedo (ATCC 7941) = assay: MIC for filamentous fungi; type: cell-based; settings: ATCC7941, read-out: Minimal Inhibitory Concentration (MIC)
From the text: (§6) The following strains were used (the number of strains is in brackets): Aspergillus (5); Fusarium (1); Mucor (1); Penicillium (1).
(§7) The tested substances were: ST 712, ST 722, ST 982, ST 983, ST 1000, ST 1001, ST 1032, ST 1033, ST 1034, ST 1036, ST 1037, ST 1038, ST 1050, ST 1051, ST 1052, ST 1053. The assay medium was the same as the one used in the previous study. The conidia from 72-hour cultures in Sabouraud agar, collected by washing with Sabouraud medium and Tween 80 (one drop of Tween per 10 ml of medium), were utilized as inoculum (5.0×10^4 CFU/ml).
(§8) The assay was performed using the same procedure as described for yeast-like fungi.
(§9) Also the evaluation of MIC and MFC was as reported previously.

[1] = system: Aspergillus niger (ATCC 16404); assay: MIC for filamentous fungi; type: cell-based; settings: ATCC16404, read-out: Minimal Inhibitory Concentration (MIC)
From the text: as §6, §7, §8, §9

[2] = system: Aspergillus fumigatus (ATCC 28212); assay: MIC for filamentous fungi; type: cell-based; settings: ATCC28212, read-out: Minimal Inhibitory Concentration (MIC)
From the text: as §6, §7, §8, §9

Fusarium sp. (ISS 1) = assay: MIC for filamentous fungi; type: cell-based; settings: read-out: Minimal Inhibitory Concentration (MIC)
From the text: as §6, §7, §8, §9

Penicillium sp. (1302) = assay: MIC for filamentous fungi; type: cell-based; settings: read-out: Minimal Inhibitory Concentration (MIC)
From the text: as §6, §7, §8, §9

[3] = system: Cryptococcus neoformans (4711); assay: MIC for yeast and yeast-like strains; type: cell-based; settings: 48 hours, 35° C., read-out: Minimal Inhibitory Concentration (MIC)
Procedure: as §1, §2, §3, §4, §5

[4] = system: Torulopsis candida (D.S.); assay: MIC for yeast and yeast-like strains; type: cell-based; settings: Suzukiozyma candida; 48 hours, 35° C.; read-out: Minimal Inhibitory Concentration (MIC)
Procedure: as §1, §2, §3, §4, §5

Candida albicans (Ca 2) = assay: MIC for yeast and yeast-like strains; type: cell-based; settings: 48 hours, 35° C., read-out: Minimal Inhibitory Concentration (MIC)
Procedure: as §1, §2, §3, §4, §5

Candida albicans (A 54) = assay: MIC for yeast and yeast-like strains; type: cell-based; settings: 48 hours, 35° C., read-out: Minimal Inhibitory Concentration (MIC)
Procedure: as §1, §2, §3, §4, §5

[5] = system: Candida tropicalis (5705); assay: MIC for yeast and yeast-like strains; type: cell-based; settings: 48 hours, 35° C., read-out: Minimal Inhibitory Concentration (MIC)
Procedure: as §1, §2, §3, §4, §5

filamentous fungi = assay: MIC / MFC for filamentous fungi, all strains; type: cell-based, Aspergillus, Fusarium, Mucor, Penicillium; settings: read-out: Mean MIC values
From the text: as §6, §7, §8, §9

[6] = system: Candida parapsilosis (ISS 1); assay: MIC for yeast and yeast-like strains; type: cell-based; settings: Lodderomyces parapsilosis; 48 hours, 35° C.; read-out: Minimal Inhibitory Concentration (MIC)
Procedure: as §1, §2
(§10) This medium was buffered with 0.165 M 2-(N-morpholino) propane sulfonic acid (MOPS), a non-chelating buffer.
(§11) Antimicrob. Agents Cheroother. Aug. 34.8:1542-1545).
as §4, §5

Candida glabrata (ISS 1) = assay: MIC for yeast and yeast-like strains; type: cell-based; settings: Nakaseomyces glabratus; 48 hours, 35° C.; read-out: Minimal Inhibitory Concentration (MIC)
Procedure: as §1, §2, §10, §11, §4, §5

[7] = system: Candida tropicalis (ISS 1); assay: MIC for yeast and yeast-like strains; type: cell-based; settings: 48 hours, 35° C., read-out: Minimal Inhibitory Concentration (MIC)
Procedure: as §1, §2, §10, §11, §4, §5

Candida albicans (ISS 1) = assay: MIC for yeast and yeast-like strains; type: cell-based; settings: 48 hours, 35° C., read-out: Minimal Inhibitory Concentration (MIC)
Procedure: as §1, §2, §10, §11, §4, §5

[8] = system: Candida guilliermondii (ISS 1); assay: MIC for yeast and yeast-like strains; type: cell-based; settings: Meyerozyma guilliermondii; 48 hours, 35° C.; read-out: Minimal Inhibitory Concentration (MIC)
Procedure: as §1, §2, §10, §11, §4, §5

Candida krusei (ISS 1) = assay: MIC for yeast and yeast-like strains; type: cell-based; settings: Pichia kudriavzevii; 48 hours, 35° C.; read-out: Minimal Inhibitory Concentration (MIC)
Procedure: as §1, §2, §3, §4, §5

dermatophytic fungi = assay: MIC / MFC for dermatophytic fungi, all strains; type: cell-based, Trichophyton, Microsporum, Epidermophyton; settings: versus susceptible strains
Procedure: (§12) The following strains were used: Trichophyton menthagrophytes ATCC 9533, Trichophyton rubrum IHEM 4274, Microsporum canis IHEM 3522, Epydermophyton floccosum IHEM 3495. The tested substances were: ST 722, ST 1033, ST 1037, ST 1050, ST 1051, ST 1052,. ST 1053.
(§13) The assay was performed following the same procedure described for the yeasts, by using 7-day fungi cultures grown at 30° C. in Potato Dextrose agar, and harvested with Sabouraud broth and Tween 80 (0.5%).
(§14) After washing with Yeast Nitrogen Base, supplemented with asparagine and glucose (as carbon source), the fungal suspension was fragmented using a tissue grinder until the largest clumps or aggregates were undetectable within the grinder. This fungal suspension was then appropriately diluted in YNB to yield a concentration of 2.0×10^5 infective particles/ml (small mycelium fragments, micro-and macroaleuriospores).
(§15) Volumes of 100 μl both of the fungal suspensions and substance solutions, two-fold serially diluted in assay medium, were distributed into each well of a microtiter plate (96 wells, round bottom), which was incubated at 35° C. for 96 hours.

Candida albicans (562) = assay: MIC for yeast and yeast-like strains; type: cell-based; settings: 48 hours, 35° C., read-out: Minimal Inhibitory Concentration (MIC)
Procedure: as §1, §2, §3, §4, §5

[9] = system: Saccharomyces cerevisiae (ATCC 7752); assay: MIC for yeast and yeast-like strains; type: cell-based; settings: ATCC7752, 48 hours, 35° C., read-out: Minimal Inhibitory Concentration (MIC)
Procedure: as §1, §2, §3, §4, §5

[10] = system: Trichophyton menthagrophites (ATCC 9533); assay: MIC for dermatophytic fungi; type: cell-based; settings: ATCC9533, 35° C., 96 hours, read-out: Minimal Inhibitory Concentration (MIC)
Procedure: as §12, §13, §14, §15

[11] = system: Trichophyton rubrum (IHEM 4274); assay: MIC for dermatophytic fungi; type: cell-based; settings: 35° C., 96 hours, read-out: Minimal Inhibitory Concentration (MIC)
Procedure: as §12, §13, §14, §15

[12] = system: Epidermophyton floccosum (IHEM 3495); assay: MIC for dermatophytic fungi; type: cell-based; settings: 35° C., 96 hours, read-out: Minimal Inhibitory Concentration (MIC)
Procedure: as §12, §13, §14, §15

[13] = system: Microsporum canis (IHEM 3522); assay: MIC for dermatophytic fungi; type: cell-based; settings: 35° C., 96 hours, read-out: Minimal Inhibitory Concentration (MIC)
Procedure: as §12, §13, §14, §15

Structure (SMILES)	MIC (Mucor mucedo (ATCC 7941)) [µg/mL]	MIC [1] [µg/mL]	MIC [2] [µg/mL]	MIC (Fusarium sp. (ISS 1)) [µg/mL]	MIC (Penicillium sp. (1302)) [µg/mL]	MIC [3] [µg/mL]	MIC [4] [µg/mL]	MIC (Candida albicans (Ca 2)) [µg/mL]	MIC (Candida albicans (A 54)) [µg/mL]	MIC [5] [µg/mL]	MIC (yeast-like fungi; versus susceptible strains) [µg/mL]	MIC (filamentous fungi; versus susceptible strains) [µg/mL]	MIC (Candida krusei (ISS 1)) [µg/mL]	MIC (dermatophytic fungi) [µg/mL]	MIC (Candida albicans (562)) [µg/mL]	MIC [9] [µg/mL]	MIC [10] [µg/mL]	MIC [11] [µg/mL]	MIC [12] [µg/mL]	MIC [13] [µg/mL]	further results
CCCCCCCCCCCOC(=O)C[C@H](C[N+](C)(C)C)OC(=O)CCCCCCCCCC [ST 982]	> 100	> 100	> 100	> 100	> 100	> 100	> 100	> 100	> 100	> 100	–	–	–	–	–	–	–	–	–	–	MIC (yeast-like fungi): > 100 µg/mL; MIC (filamentous fungi): > 100 µg/mL
CCCCCCCCCCCCCCCC(=O)O[C@H](CC(=O)OCCCCCCCCCCC)C[N+](C)(C)C [ST 983]	> 100	> 100	> 100	> 100	> 100	> 100	> 100	> 100	> 100	> 100	> 100	> 100	–	–	–	–	–	–	–	–	–
CCCCCCCCCCCOC(=O)C[C@H](C[N+](C)(C)C)OC(=O)CCCCCCC [ST 1000]	6.25	3.12	3.12	3.12	3.12	1.56	6.25	1.56	6.25	–	4.21	3.76	1.56	–	–	–	–	–	–	–	MIC [6]: 6.25 µg/mL; MIC (Candida glabrata (ISS 1)): 6.25 µg/mL; MIC [7]: 3.12 µg/mL; MIC (Candida albicans (ISS 1)): 3.12 µg/mL; MIC [8]: 6.25 µg/mL
CCCCCCCCCCCCCOC(=O)C[C@H](C[N+](C)(C)C)OC(=O)CCCCCC [ST 1050]	12.5	6.25	6.25	6.25	3.12	–	–	3.12	–	6.25	4.37	6.85	3.12	20.3	6.25	3.12	12.5	6.25	50	12.5	–
CCCCCCCCCCCCCOC(=O)C[C@H](C[N+](C)(C)C)OC(=O)C(C)CCCC (stereo partly shown) [ST 1051]	6.25	6.25	3.12	6.25	3.12	–	–	1.56	–	3.12	2.8	6.87	3.12	14.1	3.12	3.12	12.5	6.25	25	12.5	–
CCCCCCCCCCCCCOC(=O)C[C@H](C[N+](C)(C)C)OC(=O)CCCCC [ST 1052]	6.25	3.12	3.12	6.25	3.12	–	–	1.56	–	3.12	2.8	4.37	3.12	12.5	3.12	3.12	12.5	6.25	25	6.25	–
CCCCCCCCCCCCCOC(=O)C[C@H](C[N+](C)(C)C)OC(=O)CCCCCCC [ST 1053]	12.5	3.12	6.25	6.25	3.12	–	–	3.12	–	6.25	5.62	6.24	3.12	14.1	12.5	3.12	6.25	6.25	50	6.25	–
